Reference: US10350210B2, “EGFR and ALK dual inhibitor” (PRECEDO PHARMACEUTICALS CO., LTD, priority 2015, dated 2019)
“Also recorded” adds a separate entry of the source.

Assays:
H3255 [1] = experiment: Effect on cell apoptosis (Western Blot, PARP and Caspase 3 cleavage), H3255; assay type: cell-based; conditions: H3255 (EGFR L858R), 24 hours
Source text: (§1) In order to confirm whether the death of cells is through apoptosis or necrosis after administration of drugs, non-small cell lung cancer cell A549 (expressing wild-type EGFR gene), non-small cell lung cancer cell line H1975 (expressing EGFR L858R/T790M double mutant gene), non-small cell lung cancer cell line H3255 (expressing EGFR L858R mutant gene), non-small cell lung cancer cell line H3122 (expressing ALK gene) cell line, and non-small cell lung cancer cell line PC-9 (expressing EGFR delE746_A750 mutant gene) were tested for effect of Compound 1 on cleavage of poly ADP-ribose polymerase PARP which is a DNA repair enzyme and Caspase 3, which were closely related to cell apoptosis. […] Western Blot was used to detect the effect of various concentrations of drugs at various time points on cleavage of poly ADP-ribose polymerase PARP which is a DNA repair enzyme and Caspase 3.

[2] = tested on: non-small cell lung cancer cell PC-9 subcutaneous tumors; experiment: Mouse tumor model of non-small cell lung cancer cell PC-9; assay type: in vivo; conditions: PC-9 tumor model; for tumor inhibition rate: Bal b/c mice, after 8 days of administration
Method: 24 Bal b/c female mice, 4-6 weeks old, were purchased from Shanghai SLAC Laboratory Animal Co., Ltd., and maintained in an SPF laboratory. Drinking water and bedding were both sterilized by autoclaving. All operations involving the mice were performed under aseptic conditions. At day 0, 5×10^6 non-small cell lung cancer cells PC9 (purchased from ATCC) were injected subcutaneously into the left flank of all mice. At day 15, all mice were divided into four groups (6 mice per group), and the first group of mice were orally administered with methyl cellulose (HKI) solvent, the second group of mice were orally administered with Compound 1 at a dose of 25 mg/kg mouse weight, the third group of mice were orally administered with Compound 1 at a dose of 50 mg/kg mouse weight, and the fourth group of mice were orally administered with Compound 1 at a dose of 100 mg/kg mouse weight daily. Starting from the administration, the length/width of the subcutaneous tumor was measured daily with a vernier caliper, and the weight of the mice was recorded daily to observe the effect of Compound 1 on the body weight of the mice. The mice were sacrificed at day 36 and the subcutaneous tumors were collected. The tumors were weighed, and then the tumor tissues were used to prepare protein lysates for use. The growth trend of the subcutaneous tumor within 16-36 days was plotted, wherein the tumor volume was calculated as length×width×width/2 mm^3.

PC-9 [3] = experiment: Effect on cell apoptosis (Western Blot, PARP and Caspase 3 cleavage), PC-9; assay type: cell-based, human; conditions: PC-9 (EGFR delE746_A750), 24 hours
Source text: as §1

[4] = tested on: EGFR protein (EGFR L858R, H3255); experiment: Effect on signaling pathway in cells, H3255; assay type: cell-based; conditions: 4 h
Source text: In four cell lines (all purchased from ATCC) including non-small cell lung cancer cell line A549 (expressing wild-type EGFR gene), non-small cell lung cancer cell line H1975 (expressing EGFR L858R/T790M double mutant gene), non-small cell lung cancer cell line H3255 (expressing EGFR L858R mutant gene) and non-small cell lung cancer cell line PC-9 (expressing EGFR delE746_A750 mutant gene), the effect of Compound 1 on EGFR or other protein kinases related to signaling pathways of EGFR such as Stat3, AKT, ErK, eIF4E, 4EBP1, P70S6K was assessed by assaying a number of cellular biochemical and functional endpoints. […] The effect of Compound 1 on phosphorylation of Stat3Y705, AKT T308, AKT 5473, Erk T202/204, EGFR Y1068, P70S6K Thr389, eIF4E Ser209, Erk T202/204, 4EBP1 (Thr37/46) in these cell lines was assayed (FIGS. 1a to 1d).

H3255 [5] = experiment: Effect on cell cycle (PI staining, flow cytometer), H3255; assay type: cell-based; conditions: H3255 (EGFR L858R), 24 hours
Source text: (§2) In order to study which growth phase the cell was halted after administration of the drugs, five cell lines including non-small cell lung cancer cell line A549 (expressing wild-type EGFR gene), non-small cell lung cancer cell line H1975 (expressing EGFR L858R/T790M double mutant gene), non-small cell Lung cancer cell line PC-9 (expressing EGFR delE746_A750 mutant gene), non-small cell lung cancer cell line H3255 (expressing EGFR L858R mutant gene) and non-small cell lung cancer cell NCI-H3122 (expressing ALK gene) were tested for effect of Compound 1 on cell cycle distribution. Two cell lines including non-small cell lung cancer cell NCI-H3122 (expressing ALK gene) and non-small cell lung cancer cell H1975 (expressing EGFR L858R/T790M double mutant gene) were tested for effect of Compound 10 on cell cycle distribution. […]

A549 = experiment: Effect on cell cycle (PI staining, flow cytometer), A549; assay type: cell-based, human; conditions: A549 (wild-type EGFR), 24 hours and 48 hours
Source text: as §2

PC-9 [6] = experiment: Effect on cell cycle (PI staining, flow cytometer), PC-9; assay type: cell-based, human; conditions: PC-9 (EGFR delE746_A750), 24 hours
Source text: as §2

C=CC(=O)Nc1cc(Nc2ncc(Cl)c(Nc3ccccc3S(=O)(=O)C(C)C)n2)c(OC)cc1N1CCN(CC)CC1 [Compound 1, N-(5-(5-chloro-4-(2-(isopropylsulfonyl)phenylamino)pyrimidin-2-ylamino)-2-(4-ethylpiperazin-1-yl)-4-methoxyphenyl)acrylamide]
concentration at which evident cleavage of PARP and Caspase 3 could be observed (H3255 [1]): 0.03 µM
tumor inhibition rate ([2]; oral daily 25 mg/kg): 89.8%
tumor inhibition rate ([2]; oral daily 50 mg/kg): 95.1%
tumor inhibition rate ([2]; oral daily 100 mg/kg): 98.7%
body weight of the mice ([2]; oral daily 25 mg/kg, 25 mg/kg): barely affect the body weight; also recorded: did not decrease
body weight of the mice ([2]; oral daily 50 mg/kg): did not decrease
concentration at which evident cleavage of PARP and Caspase 3 could be observed (PC-9 [3]): 0.3 µM
concentration able to significantly inhibit the phosphorylation of EGFR protein (also affects AKT and ERK phosphorylation) [4]: 0.3 µM
effect on cell cycle distribution (H3255 [5]): halt the cells in G0-G1 phase
effect on cell cycle (A549): certain effect
effect on cell cycle distribution (PC-9 [6]): halt the cells in G0-G1 phase
